From patent US12258327B2, “5-membered heteroaryl-containing aminopyridine compounds as EGFR inhibitors” (YUHAN CORPORATION, priority 2021, dated 2025)
Read-outs that look alike come from different tables or passages of the source.

Experiments:
[1] = biological target: EGFR del19/T790M/C797S (Homo sapiens, UniProt P00533, C797S/DEL746-750/T790M); test: Biochemical EGFR kinase assay (Lance Ultra TR-FRET), triple mutant del19/T790M/C797S
How it was run: (§1)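 Step 1: compound in kinase buffer, 0.003–10 μM. Step 2: kinase reaction 1 h at room temperature. Step 4: TR-FRET read at 615/665 nm; IC50 calculated.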

[2] = biological target: EGFR L858R/T790M/C797S (Homo sapiens, UniProt P00533, C797S/L858R/T790M); test: Biochemical EGFR kinase assay (Lance Ultra TR-FRET), triple mutant L858R/T790M/C797S
Sequence of EGFR L858R/T790M/C797S (P00533 25-1210 T790M/C797S/L858R): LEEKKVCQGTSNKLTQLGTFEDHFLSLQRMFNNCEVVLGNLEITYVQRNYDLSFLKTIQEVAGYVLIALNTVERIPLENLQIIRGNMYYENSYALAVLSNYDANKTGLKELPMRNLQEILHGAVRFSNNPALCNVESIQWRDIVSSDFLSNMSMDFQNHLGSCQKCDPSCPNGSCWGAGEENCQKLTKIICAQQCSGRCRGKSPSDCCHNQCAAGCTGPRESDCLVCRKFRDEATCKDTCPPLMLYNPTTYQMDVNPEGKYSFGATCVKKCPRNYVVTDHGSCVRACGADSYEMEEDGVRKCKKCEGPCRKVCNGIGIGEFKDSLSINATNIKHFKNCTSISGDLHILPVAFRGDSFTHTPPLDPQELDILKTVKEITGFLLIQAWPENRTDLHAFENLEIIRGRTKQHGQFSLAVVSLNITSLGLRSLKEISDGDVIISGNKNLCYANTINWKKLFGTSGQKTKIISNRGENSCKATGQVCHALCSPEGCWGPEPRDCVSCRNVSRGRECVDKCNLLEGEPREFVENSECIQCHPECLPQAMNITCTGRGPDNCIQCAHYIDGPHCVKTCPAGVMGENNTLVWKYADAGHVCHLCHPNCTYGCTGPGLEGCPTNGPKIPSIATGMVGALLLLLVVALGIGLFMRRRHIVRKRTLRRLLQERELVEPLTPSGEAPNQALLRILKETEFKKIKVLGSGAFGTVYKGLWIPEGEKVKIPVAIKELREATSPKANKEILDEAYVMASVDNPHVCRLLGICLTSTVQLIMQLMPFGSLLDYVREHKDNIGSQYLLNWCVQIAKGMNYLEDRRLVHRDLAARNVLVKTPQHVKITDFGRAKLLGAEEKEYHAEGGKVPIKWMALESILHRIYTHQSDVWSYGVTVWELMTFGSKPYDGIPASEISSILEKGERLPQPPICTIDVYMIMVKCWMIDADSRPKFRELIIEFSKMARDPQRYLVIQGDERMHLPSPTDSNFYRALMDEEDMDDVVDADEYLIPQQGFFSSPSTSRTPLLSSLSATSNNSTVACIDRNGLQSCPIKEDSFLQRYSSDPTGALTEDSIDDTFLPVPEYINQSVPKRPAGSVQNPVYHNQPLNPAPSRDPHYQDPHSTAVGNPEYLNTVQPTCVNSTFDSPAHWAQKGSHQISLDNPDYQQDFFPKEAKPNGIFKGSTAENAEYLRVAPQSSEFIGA
How it was run: as §1

[3] = biological target: EGFR del19/C797S (Homo sapiens, UniProt P00533, C797S/DEL746-750); test: Biochemical EGFR kinase assay (Lance Ultra TR-FRET), double mutant del19/C797S
How it was run: as §1

[4] = biological target: EGFR L858R/C797S (Homo sapiens, UniProt P00533, C797S/L858R); test: Biochemical EGFR kinase assay (Lance Ultra TR-FRET), double mutant L858R/C797S
Sequence of EGFR L858R/C797S (P00533 25-1210 C797S/L858R): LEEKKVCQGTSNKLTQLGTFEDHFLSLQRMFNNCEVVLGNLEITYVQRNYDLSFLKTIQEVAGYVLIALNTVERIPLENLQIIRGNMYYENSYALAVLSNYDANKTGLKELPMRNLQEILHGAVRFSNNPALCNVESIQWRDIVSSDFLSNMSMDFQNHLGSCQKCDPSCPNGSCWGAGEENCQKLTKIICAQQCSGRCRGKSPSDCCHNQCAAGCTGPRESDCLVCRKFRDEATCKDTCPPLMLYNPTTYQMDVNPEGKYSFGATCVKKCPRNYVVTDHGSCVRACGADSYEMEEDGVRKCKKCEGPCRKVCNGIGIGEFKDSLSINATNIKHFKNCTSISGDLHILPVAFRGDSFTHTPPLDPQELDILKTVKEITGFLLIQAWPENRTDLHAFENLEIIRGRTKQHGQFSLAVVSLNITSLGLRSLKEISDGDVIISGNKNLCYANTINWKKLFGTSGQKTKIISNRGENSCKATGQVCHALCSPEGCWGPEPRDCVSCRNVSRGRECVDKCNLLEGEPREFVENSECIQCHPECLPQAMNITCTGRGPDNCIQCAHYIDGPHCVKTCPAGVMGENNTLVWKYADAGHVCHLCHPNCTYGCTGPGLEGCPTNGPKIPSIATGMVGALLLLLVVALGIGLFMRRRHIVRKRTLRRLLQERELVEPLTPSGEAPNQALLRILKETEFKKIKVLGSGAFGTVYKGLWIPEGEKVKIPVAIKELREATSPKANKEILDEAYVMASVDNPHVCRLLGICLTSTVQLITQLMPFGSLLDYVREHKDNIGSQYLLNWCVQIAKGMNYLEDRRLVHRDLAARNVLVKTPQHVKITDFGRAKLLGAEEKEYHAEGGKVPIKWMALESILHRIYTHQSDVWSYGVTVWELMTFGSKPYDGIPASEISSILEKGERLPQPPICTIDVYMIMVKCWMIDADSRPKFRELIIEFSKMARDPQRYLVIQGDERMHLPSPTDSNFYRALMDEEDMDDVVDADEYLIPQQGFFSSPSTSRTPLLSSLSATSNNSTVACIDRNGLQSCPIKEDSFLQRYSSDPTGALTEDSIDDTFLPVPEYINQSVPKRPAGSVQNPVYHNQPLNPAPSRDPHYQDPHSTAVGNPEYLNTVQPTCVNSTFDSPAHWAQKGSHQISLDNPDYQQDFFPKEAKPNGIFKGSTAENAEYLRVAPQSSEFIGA
How it was run: as §1

[5] = biological target: EGFR wildtype (WT) (Homo sapiens, UniProt P00533); test: Biochemical EGFR kinase assay (Lance Ultra TR-FRET), wildtype
Sequence of EGFR wildtype (WT) (P00533 25-1210): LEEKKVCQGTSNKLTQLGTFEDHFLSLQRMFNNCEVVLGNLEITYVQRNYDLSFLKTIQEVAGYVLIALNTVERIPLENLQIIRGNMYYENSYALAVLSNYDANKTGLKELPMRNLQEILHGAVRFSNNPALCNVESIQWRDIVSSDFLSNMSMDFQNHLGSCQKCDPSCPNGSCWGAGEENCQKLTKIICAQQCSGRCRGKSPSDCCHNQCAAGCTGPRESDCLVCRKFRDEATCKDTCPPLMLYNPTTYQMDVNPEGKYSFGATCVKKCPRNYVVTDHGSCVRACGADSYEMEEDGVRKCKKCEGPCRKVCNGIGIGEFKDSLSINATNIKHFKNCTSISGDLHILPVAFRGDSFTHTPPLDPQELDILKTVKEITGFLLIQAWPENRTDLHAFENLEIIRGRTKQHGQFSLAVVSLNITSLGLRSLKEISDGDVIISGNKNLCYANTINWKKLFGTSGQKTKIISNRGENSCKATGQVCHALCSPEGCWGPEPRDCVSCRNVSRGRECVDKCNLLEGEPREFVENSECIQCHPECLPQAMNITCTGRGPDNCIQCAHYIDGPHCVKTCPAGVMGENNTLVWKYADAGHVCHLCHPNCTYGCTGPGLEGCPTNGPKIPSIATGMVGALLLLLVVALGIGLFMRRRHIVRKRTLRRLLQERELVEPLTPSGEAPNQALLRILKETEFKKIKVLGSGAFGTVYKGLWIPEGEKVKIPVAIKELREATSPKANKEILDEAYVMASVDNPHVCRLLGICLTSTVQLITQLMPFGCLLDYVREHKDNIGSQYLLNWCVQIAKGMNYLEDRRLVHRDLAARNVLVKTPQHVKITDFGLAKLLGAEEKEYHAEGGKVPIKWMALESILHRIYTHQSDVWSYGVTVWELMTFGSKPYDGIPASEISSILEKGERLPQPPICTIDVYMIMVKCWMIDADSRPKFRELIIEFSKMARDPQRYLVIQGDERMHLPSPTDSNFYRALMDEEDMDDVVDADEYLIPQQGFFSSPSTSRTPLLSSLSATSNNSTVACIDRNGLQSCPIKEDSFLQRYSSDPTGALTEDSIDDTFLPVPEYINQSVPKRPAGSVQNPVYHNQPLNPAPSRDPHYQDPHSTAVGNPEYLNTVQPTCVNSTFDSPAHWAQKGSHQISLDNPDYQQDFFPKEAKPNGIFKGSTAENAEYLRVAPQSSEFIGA
How it was run: as §1

[6] = IC50 del19/T790M/C797S (nM) 100 μM ATP, 100 μM ATP
[7] = IC50 L858R/T790M/C797S (nM) 100 μM ATP, 100 μM ATP
[8] = IC50 del19/C797S (nM) 100 μM ATP, 100 μM ATP
[9] = IC50 L858R/C797S (nM) 100 μM ATP, 100 μM ATP
[10] = IC50 WT (nM) 100 μM ATP, 100 μM ATP
[11] = Km ATP, read-out: IC50 del19/T790M/C797S (nM) Km ATP
[12] = Km ATP, read-out: IC50 L858R/T790M/C797S (nM) Km ATP
[13] = Km ATP, read-out: IC50 del19/C797S (nM) Km ATP
[14] = Km ATP, read-out: IC50 L858R/C797S (nM) Km ATP
[15] = Km ATP, read-out: IC50 WT (nM) Km ATP

Sequence of EGFR del19/T790M/C797S (P00533 with tags, fused parts or gaps DEL746-750/T790M/C797S): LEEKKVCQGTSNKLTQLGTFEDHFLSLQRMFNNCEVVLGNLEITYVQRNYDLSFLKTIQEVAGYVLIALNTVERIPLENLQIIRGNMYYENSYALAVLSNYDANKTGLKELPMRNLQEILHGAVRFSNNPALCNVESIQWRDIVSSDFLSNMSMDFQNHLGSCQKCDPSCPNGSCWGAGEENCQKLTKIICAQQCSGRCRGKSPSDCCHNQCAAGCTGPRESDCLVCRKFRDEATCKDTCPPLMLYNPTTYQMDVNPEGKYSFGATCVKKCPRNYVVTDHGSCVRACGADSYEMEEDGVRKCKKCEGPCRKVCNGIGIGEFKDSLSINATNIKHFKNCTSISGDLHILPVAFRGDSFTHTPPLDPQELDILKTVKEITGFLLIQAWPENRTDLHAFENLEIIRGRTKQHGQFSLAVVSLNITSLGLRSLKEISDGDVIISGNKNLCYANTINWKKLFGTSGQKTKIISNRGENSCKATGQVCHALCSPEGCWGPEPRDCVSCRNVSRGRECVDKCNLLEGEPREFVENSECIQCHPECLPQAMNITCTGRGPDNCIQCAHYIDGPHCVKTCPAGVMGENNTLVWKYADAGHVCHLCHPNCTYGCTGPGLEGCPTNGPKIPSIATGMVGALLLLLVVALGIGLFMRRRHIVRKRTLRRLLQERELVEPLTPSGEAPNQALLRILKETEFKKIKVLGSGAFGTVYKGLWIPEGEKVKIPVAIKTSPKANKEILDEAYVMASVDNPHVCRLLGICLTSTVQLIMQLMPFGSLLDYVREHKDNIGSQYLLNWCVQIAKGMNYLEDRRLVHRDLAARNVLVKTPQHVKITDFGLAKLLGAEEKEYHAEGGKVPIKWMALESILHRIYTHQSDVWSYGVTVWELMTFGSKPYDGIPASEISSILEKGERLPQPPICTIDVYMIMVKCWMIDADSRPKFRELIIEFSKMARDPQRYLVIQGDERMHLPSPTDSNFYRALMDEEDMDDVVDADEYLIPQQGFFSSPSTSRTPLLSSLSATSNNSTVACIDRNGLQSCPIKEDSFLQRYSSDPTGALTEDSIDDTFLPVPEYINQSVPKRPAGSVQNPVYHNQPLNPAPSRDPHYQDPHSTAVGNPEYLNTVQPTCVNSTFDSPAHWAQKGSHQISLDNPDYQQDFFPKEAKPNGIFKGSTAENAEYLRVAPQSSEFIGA

| SMILES | IC50 [1, 6] [nM] | IC50 [2, 7] [nM] | IC50 [3, 8] [nM] | IC50 [4, 9] [nM] | IC50 [5, 10] [nM] | IC50 [1, 11] [nM] | IC50 [2, 12] [nM] | IC50 [3, 13] [nM] | IC50 [4, 14] [nM] | IC50 [5, 15] [nM] | IC50 ([1]; Km ATP, read-out: IC50 del19/T790M/C797S, Km ATP) [nM] | IC50 ([2]; Km ATP, read-out: IC50 L858R/T790M/C797S, Km ATP) [nM] | IC50 ([3]; Km ATP, read-out: IC50 del19/C797S, Km ATP) [nM] | IC50 ([4]; Km ATP, read-out: IC50 L858R/C797S, Km ATP) [nM] | IC50 ([5]; Km ATP, read-out: IC50 WT, Km ATP) [nM] |
| --- | --- | --- | --- | --- | --- | --- | --- | --- | --- | --- | --- | --- | --- | --- | --- |
| Cn1ccc(-c2cnc(Nc3ccnc(-c4cnn(S(=O)(=O)C5CC5)c4)n3)cc2NC[C@H]2CC[C@H](NCC(F)F)CC2)n1 [Example 129, N^2-(2-(1-(Cyclopropylsulfonyl)-1H-pyrazol-4-yl)pyrimidin-4-yl)-N^4-(((1r,4r)-4-((2,2-difluoroethyl)amino)cyclohexyl)methyl)-5-(1-methyl-1H-pyrazol-3-yl)pyridine-2,4-diamine] | 0.7 | 0.7 | 2 | 14.3 | > 10000 |  |  |  |  |  |  |  |  |  |  |
| O=S(=O)(C1CC1)n1cc(-c2nccc(Nc3cc(NC4CCC(O)C4)c(-c4ccn(C(F)F)n4)cn3)n2)cn1 (stereo not drawn) [Example 15, 3-((2-((2-(1-(Cyclopropylsulfonyl)-1H-pyrazol-4-yl)pyrimidin-4-yl)amino)-5-(1-(difluoromethyl)-1H-pyrazol-3-yl)pyridin-4-yl)amino)cyclopentan-1-ol] | 0.6 | 0.9 | 3.2 | 9.7 | > 10000 |  |  |  |  |  |  |  |  |  |  |
| O=S(=O)(C1CC1)n1cc(-c2nccc(Nc3cc(N[C@H]4CC[C@@H](NCCF)CC4)c(-c4csc(N5CCOCC5)n4)cn3)n2)cn1 [Example 126, N^2-(2-(1-(Cyclopropylsulfonyl)-1H-pyrazol-4-yl)pyrimidin-4-yl)-N^4-((1s,4s)-4-((2-fluoroethyl)amino)cyclohexyl)-5-(2-morpholinothiazol-4-yl)pyridine-2,4-diamine] | 0.8 | 1.3 | 30.3 | 379 | > 10000 | 0.7 | 0.4 | 21 |  | 112 |  |  |  |  |  |
| CN(C)C[C@H]1CC[C@@H](Nc2cc(Nc3ccnc(-c4cnn(S(=O)(=O)C5CC5)c4)n3)ncc2-c2cc(C(F)(F)F)n(C)n2)CC1 [Example 256, N^2-(2-(1-(Cyclopropylsulfonyl)-1H-pyrazol-4-yl)pyrimidin-4-yl)-N^4-((1s,4s)-4-((dimethylamino)methyl)cyclohexyl)-5-(1-methyl-5-(trifluoromethyl)-1H-pyrazol-3-yl)pyridine-2,4-diamine] |  | 0.5 | 2 | 7.5 | 123 | 1.4 | 0.4 | 0.8 |  | 0.5 |  |  |  |  |  |
| O=S(=O)(C1CC1)n1cc(-c2nccc(Nc3cc(NC[C@H]4C[C@@H](O)C4)c(-c4ccn(C(F)F)n4)cn3)n2)cn1 [Example 35, (1s,3s)-3-(((2-((2-(1-(Cyclopropylsulfonyl)-1H-pyrazol-4-yl)pyrimidin-4-yl)amino)-5-(1-(difluoromethyl)-1H-pyrazol-3-yl)pyridin-4-yl)amino)methyl)cyclobutan-1-ol] | 0.3 | 0.9 | 5.4 | 57.6 | > 10000 | 0.4 | 0.2 | 5.2 | 6.5 | 32.9 |  |  |  |  |  |
| O=S(=O)(C1CC1)n1cc(-c2nccc(Nc3cc(NCC4(CO)COC4)c(-c4ccn(C(F)F)n4)cn3)n2)cn1 [Example 197, (3-(((2-((2-(1-(Cyclopropylsulfonyl)-1H-pyrazol-4-yl)pyrimidin-4-yl)amino)-5-(1-(difluoromethyl)-1H-pyrazol-3-yl)pyridin-4-yl)amino)methyl)oxetan-3-yl)methanol] | 0.2 | 0.3 | 2.2 | 70 | > 10000 | 0.1 | 0.1 | 1.1 | 2.1 | 7.9 |  |  |  |  |  |
| Cc1nn(CC(F)(F)F)cc1-c1nccc(Nc2cc(N[C@H]3CC[C@@H](CCO)CC3)c(-c3cc(C(F)(F)F)n(C)n3)cn2)n1 [Example 334, 2-((1s,4s)-4-((2-((2-(3-Methyl-1-(2,2,2-trifluoroethyl)-1H-pyrazol-4-yl)pyrimidin-4-yl)amino)-5-(1-methyl-5-(trifluoromethyl)-1H-pyrazol-3-yl)pyridin-4-yl)amino)cyclohexyl)ethan-1-ol] |  |  |  |  |  |  |  |  |  |  | 4.2 | 2.8 | 41.2 | 17.1 | 24.6 |

Continued, values first:

| IC50 [1, 6] [nM] | IC50 [2, 7] [nM] | IC50 [3, 8] [nM] | IC50 [4, 9] [nM] | IC50 [5, 10] [nM] | IC50 [1, 11] [nM] | IC50 [2, 12] [nM] | IC50 [3, 13] [nM] | IC50 [4, 14] [nM] | IC50 [5, 15] [nM] | IC50 ([1]; Km ATP, read-out: IC50 del19/T790M/C797S, Km ATP) [nM] | IC50 ([2]; Km ATP, read-out: IC50 L858R/T790M/C797S, Km ATP) [nM] | IC50 ([3]; Km ATP, read-out: IC50 del19/C797S, Km ATP) [nM] | IC50 ([4]; Km ATP, read-out: IC50 L858R/C797S, Km ATP) [nM] | IC50 ([5]; Km ATP, read-out: IC50 WT, Km ATP) [nM] | SMILES |
| --- | --- | --- | --- | --- | --- | --- | --- | --- | --- | --- | --- | --- | --- | --- | --- |
|  |  |  |  |  | 4.6 | 1.7 | 66.9 | 13.2 | 55.5 |  |  |  |  |  | C[C@]1(O)CC[C@@H](Nc2cc(Nc3ccnc(-c4cnn(S(=O)(=O)N5CC(F)C5)c4)n3)ncc2-c2ccn(C(F)F)n2)CC1 [Example 324, (1s,4s)-4-((5-(1-(Difluoromethyl)-1H-pyrazol-3-yl)-2-((2-(1-((3-fluoroazetidin-1-yl)sulfonyl)-1H-pyrazol-4-yl)pyrimidin-4-yl)amino)pyridin-4-yl)amino)-1-methylcyclohexan-1-ol] |
| 2.4 | 7.7 | 77.1 | 590 | > 10000 | 1.1 | 1 | 89.9 | 26.2 | 218 |  |  |  |  |  | O=S(=O)(C1CC1)n1cc(-c2nccc(Nc3cc(NC4CCCC4O)c(-c4ccn(C(F)F)n4)cn3)n2)cn1 (stereo not drawn) [Example 29, 2-((2-((2-(1-(Cyclopropylsulfonyl)-1H-pyrazol-4-yl)pyrimidin-4-yl)amino)-5-(1-(difluoromethyl)-1H-pyrazol-3-yl)pyridin-4-yl)amino)cyclopentan-1-ol] |
| 6.2 | 4.8 | 73 | 1100 | > 10000 | 7.7 | 2.5 | 48.2 | 50.7 | 73.2 |  |  |  |  |  | CC1CC(Nc2cc(Nc3ccnc(-c4cnn(S(=O)(=O)C5CC5)c4)n3)ncc2-c2ccn(C(F)F)n2)CCC1O (stereo not drawn) [Example 105, 4-((2-((2-(1-(Cyclopropylsulfonyl)-1H-pyrazol-4-yl)pyrimidin-4-yl)amino)-5-(1-(difluoromethyl)-1H-pyrazol-3-yl)pyridin-4-yl)amino)-2-methylcyclohexan-1-ol] |
| 0.3 | 0.3 | 0.5 | 1.6 | 47.5 | 0.2 | 0.1 | 0.2 | 0.2 | 0.4 |  |  |  |  |  | CN(C)C[C@H]1CC[C@@H](Nc2cc(Nc3ccnc(-c4cnn(S(=O)(=O)C5CC5)c4)n3)ncc2-c2cc3n(n2)CCCC3)CC1 [Example 277, N^2-(2-(1-(Cyclopropylsulfonyl)-1H-pyrazol-4-yl)pyrimidin-4-yl)-N^4-((1s,4s)-4-((dimethylamino)methyl)cyclohexyl)-5-(4,5,6,7-tetrahydropyrazolo[1,5-a]pyridin-2-yl)pyridine-2,4-diamine] |
| 0.5 | 0.5 | 2.1 | 2.9 | > 10000 | 0.8 | 0.3 | 1.1 | 0.7 |  |  |  |  |  |  | CN(C)C(=O)[C@H]1CC[C@@H](Nc2cc(Nc3ccnc(-c4cnn(S(=O)(=O)C5CC5)c4)n3)ncc2-c2ccn(C(F)F)n2)CC1 [Example 201, (1s,4s)-4-((2-((2-(1-(Cyclopropylsulfonyl)-1H-pyrazol-4-yl)pyrimidin-4-yl)amino)-5-(1-(difluoromethyl)-1H-pyrazol-3-yl)pyridin-4-yl)amino)-N,N-dimethylcyclohexane-1-carboxamide] |
| 0.8 | 1.2 | 2.4 | 25.4 | > 10000 | 0.6 | 0.2 | 1.1 | 5.3 | 8.2 |  |  |  |  |  | Cn1nc(-c2cnc(Nc3ccnc(-c4cnn(S(=O)(=O)C5CC5)c4)n3)cc2N[C@H]2CC[C@@H](NCCF)CC2)cc1C(F)(F)F [Example 255, N^2-(2-(1-(Cyclopropylsulfonyl)-1H-pyrazol-4-yl)pyrimidin-4-yl)-N^4-((1s,4s)-4-((2-fluoroethyl)amino)cyclohexyl)-5-(1-methyl-5-(trifluoromethyl)-1H-pyrazol-3-yl)pyridine-2,4-diamine] |
| 0.6 | 0.9 | 4.9 | 14.2 | 7510 |  |  |  |  |  |  |  |  |  |  | O=S(=O)(C1CC1)n1cc(-c2nccc(Nc3cc(N[C@H]4CC[C@@H](O)C4)c(-c4ccn(C(F)F)n4)cn3)n2)cn1 [Example 14, (1R,3S)-3-((2-((2-(1-(Cyclopropylsulfonyl)-1H-pyrazol-4-yl)pyrimidin-4-yl)amino)-5-(1-(difluoromethyl)-1H-pyrazol-3-yl)pyridin-4-yl)amino)cyclopentan-1-ol] |
